Results from patent publication US20150274719A1, “AMINO-SUBSTITUTED IMIDAZO[1,2-A]PYRIDINECARBOXAMIDES AND THEIR USE” (BAYER PHARMA AKTIENGESELLSCHAFT, priority 2012, published 2015).
Where a name gives a salt, the structure may show the parent alone. Read-outs that look alike come from different tables or passages of the source.

Legend:
[1] = biological target: T1, recombinant guanylate cyclase reporter cell line (Rattus norvegicus, UniProt P19686+P20595); assay: Action on recombinant guanylate cyclase reporter cell line; assay type: cell-based; details: in some cases mean values from individual determinations
T1 construct: expressed in transfected cells; host or cells: recombinant reporter cell line
T1 sequence (P19686 1-690): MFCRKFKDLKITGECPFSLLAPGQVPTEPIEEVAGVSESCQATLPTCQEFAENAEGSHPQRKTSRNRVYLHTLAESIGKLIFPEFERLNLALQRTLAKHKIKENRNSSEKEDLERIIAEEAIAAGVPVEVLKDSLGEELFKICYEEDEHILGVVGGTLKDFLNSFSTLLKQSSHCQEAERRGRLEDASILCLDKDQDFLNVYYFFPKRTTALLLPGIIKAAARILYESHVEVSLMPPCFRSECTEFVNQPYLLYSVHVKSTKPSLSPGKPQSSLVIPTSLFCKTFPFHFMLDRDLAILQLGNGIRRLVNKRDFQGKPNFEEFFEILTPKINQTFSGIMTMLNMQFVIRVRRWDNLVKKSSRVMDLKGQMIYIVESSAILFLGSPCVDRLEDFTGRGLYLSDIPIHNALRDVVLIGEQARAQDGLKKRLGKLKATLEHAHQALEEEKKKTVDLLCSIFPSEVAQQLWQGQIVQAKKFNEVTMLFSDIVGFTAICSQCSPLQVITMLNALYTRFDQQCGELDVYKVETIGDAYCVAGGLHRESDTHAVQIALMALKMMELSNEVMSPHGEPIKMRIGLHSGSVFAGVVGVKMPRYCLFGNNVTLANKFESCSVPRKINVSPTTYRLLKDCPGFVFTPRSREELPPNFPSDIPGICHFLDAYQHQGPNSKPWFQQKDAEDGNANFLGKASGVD
T1 sequence (P20595 1-619): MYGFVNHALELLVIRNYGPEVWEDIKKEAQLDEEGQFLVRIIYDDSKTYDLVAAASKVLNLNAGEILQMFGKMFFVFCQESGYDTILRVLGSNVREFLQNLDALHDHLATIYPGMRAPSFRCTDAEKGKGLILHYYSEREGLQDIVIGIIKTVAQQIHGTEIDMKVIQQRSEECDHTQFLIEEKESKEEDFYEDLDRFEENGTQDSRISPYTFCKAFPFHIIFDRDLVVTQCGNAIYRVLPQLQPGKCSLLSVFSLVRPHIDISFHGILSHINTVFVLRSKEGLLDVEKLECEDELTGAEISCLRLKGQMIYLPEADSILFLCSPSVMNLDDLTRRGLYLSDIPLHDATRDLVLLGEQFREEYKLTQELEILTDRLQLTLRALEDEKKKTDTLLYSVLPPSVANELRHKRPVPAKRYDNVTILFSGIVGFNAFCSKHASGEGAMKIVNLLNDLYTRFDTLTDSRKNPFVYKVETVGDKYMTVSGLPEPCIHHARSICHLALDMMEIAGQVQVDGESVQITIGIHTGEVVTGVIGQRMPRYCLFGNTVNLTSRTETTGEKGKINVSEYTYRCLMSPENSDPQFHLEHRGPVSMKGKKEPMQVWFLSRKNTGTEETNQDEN
In short: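 Each compound is applied to a cell line engineered with a reporter for recombinant guanylate cyclase. The minimal effective concentration is then noted, in part as a mean across separate determinations.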

[2] = Determination of pharmacokinetic parameters following intravenous and oral administration (rats); assay type: in vivo, male Wistar rats; details: intravenous administration in rats
Description: B-6. Determination of Pharmacokinetic Parameters Following Intravenous and Oral Administration
The pharmacokinetic parameters of the compounds according to the invention are determined in male CD-1 mice, male Wistar rats and female beagles. Intravenous administration in the case of mice and rats is carried out by means of a species-specific plasma/DMSO formulation, and in the case of dogs by means of a water/PEG400/ethanol formulation. In all species, oral administration of the dissolved substance is performed via gavage, based on a water/PEG400/ethanol formulation. The taking of blood from rats is simplified by inserting a silicone catheter into the right Vena jugularis externa prior to substance administration. The operation is carried out at least one day prior to the experiment with […] and administration of an analgesic (atropin/Rimadyl (3/1) 0.1 ml s.c.). The blood is taken (generally more than 10 time points) within a time window including terminal time points of at least 24 to a maximum of 72 hours after substance administration. When the blood is taken, it is passed into heparinised tubes. Then the blood plasma is obtained by centrifugation and is optionally stored at −20° C. until further processing.
An internal standard (which may also be a chemically unrelated substance) is added to the samples of the compounds according to the invention, calibration samples and qualifiers, and there follows protein precipitation by means of excess acetone. Addition of a buffer solution matched to the LC conditions, and subsequent vortexing, is followed by centrifugation at 1000 g. The supernatant is analysed by LC-MS/MS using C18 reversed-phase columns and variable mobile phase mixtures. The substances are quantified via the peak heights or areas from extracted ion chromatograms of specific selected ion monitoring experiments.
The plasma concentration/time plots determined are used to calculate the pharmacokinetic parameters such as AUC, Cmax, t1/2 (terminal half life), F (bioavailability), MRT (mean residence time) and CL (clearance), using a validated pharmacokinetic calculation program.
Since the substance quantification is carried out in plasma, it is necessary to determine the blood/plasma distribution of the substance in order to be able to adjust the pharmacokinetic parameters correspondingly. For this purpose, a defined amount of substance is incubated in heparinized whole blood of the species in question in a rocking roller mixture for 20 min. After centrifugation at 1000 g, the plasma concentration is measured (by means of LC-MS/MS; see above) and determined by calculating the ratio of the Cblood/Cplasma value.

[3] = male, Wistar, rat, plasma, iv, read-out: MRT

Row | MEC (minimal effective concentration) [1] [µM] | AUCnorm [2] [kg·h/L] | CLblood [2] [mL/min/kg] | half-life ([2]; male, Wistar, rat, plasma, iv) [h] | MRT [2, 3] [h] | MRT [2] [h] | t1/2 [2] [h] | Structure (SMILES)
1 | 0.3 | 0.67 | 14.5 | 3.1 | 3.9 | – | – | Cc1cc(OCc2c(F)cccc2F)c2nc(C)c(C(=O)NCC(C)(N)CF)n2c1 (single isomer, unassigned; enantiomer a) [Example 283, ent-N-(2-amino-3-fluoro-2-methylpropyl)-8-[(2,6-difluorobenzyl)oxy]-2,6-dimethylimidazo[1,2-a]pyridine-3-carboxamide (Enantiomer A)]
2 | 0.3 | 0.54 | 17 | 3.6 | 4.4 | – | – | Cc1cc(OCc2c(F)ccc(F)c2F)c2nc(C)c(C(=O)NCC(C)(N)CF)n2c1 (single isomer, unassigned; enantiomer a) [Example 285, ent-N-(2-amino-3-fluoro-2-methylpropyl)-2,6-dimethyl-8-[(2,3,6-trifluorobenzyl)oxy]imidazo[1,2-a]pyridine-3-carboxamide (Enantiomer A)]
3 | 0.3 | 0.66 | 29.3 | 5.4 | 8.4 | – | – | CCC(C)(N)CNC(=O)c1c(C)nc2c(OCc3c(F)cccc3F)cc(C(F)F)cn12 (single isomer, unassigned; enantiomer a) [Example 287, ent-N-(2-amino-2-methylbutyl)-8-[(2,6-difluorobenzyl)oxy]-6-(difluoromethyl)-2-methylimidazo[1,2-a]pyridine-3-carboxamide Formate (Enantiomer A)]
4 | 1.0 | 0.87 | 14 | 4.8 | 5.7 | – | – | Cc1nc2c(OCc3c(F)cccc3F)cc(C(F)F)cn2c1C(=O)NCC(C)(N)CF (single isomer, unassigned; enantiomer a) [Example 291, ent-N-(2-amino-3-fluoro-2-methylpropyl)-8-[(2,6-difluorobenzyl)oxy]-6-(difluoromethyl)-2-methylimidazo[1,2-a]pyridine-3-carboxamide (Enantiomer A)]
5 | 0.30 | 2.26 | 12.3 | 4.8 | 6.9 | – | – | Cc1nc2c(OCc3c(F)cccc3F)cccn2c1C(=O)NC(CN)c1ccc(F)cc1 (single isomer, unassigned; enantiomer b) [Example 10, ent-N-[2-Amino-1-(4-fluorophenyl)ethyl]-8-[(2,6-difluorobenzyl)oxy]-2-methylimidazo[1,2-a]-pyridine-3-carboxamide (Enantiomer B)]
6 | 0.10 | 0.47 | 38.2 | 3.7 | 4.7 | – | – | Cc1cc(OCc2c(F)cccc2F)c2nc(C)c(C(=O)NCC(C)(N)C3CC3)n2c1 (single isomer, unassigned; enantiomer b) [Example 261, ent-N-(2-Amino-2-cyclopropylpropyl)-8-[(2,6-difluorobenzyl)oxy]-2,6-dimethylimidazo[1,2-a]-pyridine-3-carboxamide (Enantiomer B)]
7 | 0.10 | 0.64 | 20.8 | – | – | 7.2 | 4.1 | CCC(C)(N)CNC(=O)c1c(C)nc2c(OCc3c(F)ccc(F)c3F)cc(C)cn12 (single isomer, unassigned; enantiomer b) [Example 275, ent-N-(2-Amino-2-methylbutyl)-2,6-dimethyl-8-[(2,3,6-trifluorobenzyl)oxy]imidazo[1,2-a]-pyridine-3-carboxamide (Enantiomer B)]
8 | 0.3 | 0.28 | 39 | 5.5 | 6.9 | – | – | CCCC(C)(N)CNC(=O)c1c(C)nc2c(OCc3c(F)cccc3F)cc(C3CC3)cn12 (single isomer, unassigned; enantiomer b) [Example 281, ent-N-(2-amino-2-methylpentyl)-6-cyclopropyl-8-[(2,6-difluorobenzyl)oxy]-2-methylimidazo[1,2-a]pyridine-3-carboxamide (Enantiomer B)]
9 | 0.1 | 1.20 | 16.2 | – | – | 5.3 | 4.6 | Cc1cc(OCc2c(F)cccc2F)c2nc(C)c(C(=O)NCC(C)(N)CF)n2c1 (single isomer, unassigned; enantiomer b) [Example 284, ent-N-(2-amino-3-fluoro-2-methylpropyl)-8-[(2,6-difluorobenzyl)oxy]-2,6-dimethylimidazo[1,2-a]pyridine-3-carboxamide (Enantiomer B)]
10 | 0.1 | 0.82 | 23.2 | – | – | 4.5 | 3.8 | Cc1cc(OCc2c(F)ccc(F)c2F)c2nc(C)c(C(=O)NCC(C)(N)CF)n2c1 (single isomer, unassigned; enantiomer b) [Example 286, ent-N-(2-amino-3-fluoro-2-methylpropyl)-2,6-dimethyl-8-[(2,3,6-trifluorobenzyl)oxy]imidazo[1,2-a]pyridine-3-carboxamide (Enantiomer B)]
11 | 0.3 | 0.38 | 41.8 | 4.4 | 6.8 | – | – | CCCC(C)(N)CNC(=O)c1c(C)nc2c(OCc3c(F)cccc3F)cc(C(F)F)cn12 (single isomer, unassigned; enantiomer b) [Example 289, ent-N-(2-amino-2-methylpentyl)-8-[(2,6-difluorobenzyl)oxy]-6-(difluoromethyl)-2-methyl-imidazo[1,2-a]pyridine-3-carboxamide Formate (Enantiomer B)]
